# Article PMC10574767, “Extractives from Artemisia afra with Anti-Bacterial and Anti-Fungal Properties” (Plants, 2023)
# Where two headings read alike, the source gives them in different places.
# Key:
# [1] = tested on: intra-erythrocytic and gametocyte asexual P. falciparum parasites; set-up: method as in PMID 30849984; details: intra-erythrocytic and gametocyte stages; cited from earlier work
# in vitro = experiment: in vitro
# Description: Cytotoxicity of compounds and extracts was tested against mammalian cells using the MTT assay. MCF-7 cancer cells were grown in a 5% CO2 incubator in Dulbecco’s Modified Eagle’s Medium (DMEM, Highveld Biological, Johannesburg, South Africa) supplemented with 10% fetal calf serum (Adcock-Ingram, Johannesburg, South Africa) and 1% penicillin-streptomycin (10,000 U/mL and 10 mg/mL streptomycin, Sigma Aldrich). In a 5% CO2 incubator, Vero cells were grown in a minimal essential medium (MEM, Highveld Biological, South Africa) supplemented with 5% fetal calf serum (Adcock-Ingram) and 0.1% gentamicin (Virbac). Cell suspensions were obtained from 70–80% confluent monolayer cultures and were plated in 96-well cell culture plates at a density of 1 × 10^4. Plates were incubated in a 5% CO2 incubator for 24 h at 37 °C. The cells were exposed to the extracts or compounds dissolved in the media at different concentrations for 48 h. Positive and negative controls were doxorubicin (Pfizer, New York, NYC, USA) and acetone or DMSO, respectively. After that, the wells were rinsed with phosphate-buffered saline (PBS, Sigma) and 200 µL of fresh medium was poured into the wells. Thirty microlitres (5 mg/mL) of MTT (Sigma) dissolved in PBS was added to each well, and the plates were incubated at 37 °C for 4 h. The medium from the wells was removed, rinsed, and 50 µL of 100% DMSO was added to the wells. At a wavelength of 570 nm, absorbance was measured using a microplate reader (BioTek Synergy, Beijing, China). Each sample concentration was tested in quadruplicate in two repeats (n = 8), and the concentration causing 50% inhibition of cell viability (LC50) was calculated. Selectivity index (SI) values for the extracts/compounds were obtained by dividing cytotoxicity LC50 values of normal (Vero) cells by those of the cancer cells.
# E. coli = tested on: E. coli; set-up: method as in PMID 23480526; details: cited from earlier work
# S. aureus = tested on: S. aureus; set-up: method as in PMID 23480526; details: cited from earlier work
# [2] = tested on: one fungal and five bacterial strains; experiment: Serial dilution microplate MIC, whole panel; format: cell-based; details: isolated compounds, highest concentration 250 µg/mL
# Description: (§1) The MIC value of the plant extracts and isolated compounds against one fungal and five bacterial strains (Salmonella Typhimurium ATCC 39183, Escherichia coli ATCC 25922, Pseudomonas aeruginosa ATCC 27853, Staphylococcus aureus ATCC 29213, Enterococcus faecalis ATCC 29212, and fungi culture, Candida albicans ATCC 10231) was assessed in triplicate using the serial dilution microplate method; acetone and DMSO were used as solvents. Bacterial cultures were grown in Mueller Hinton broth (Sigma Aldrich, St. Louis, MO, USA) overnight and adjusted to McFarland standard 1 (1 × 10^8 CFU/mL). Then, 100 µL of samples were transferred into the first well of a sterile 96-well microtiter plate, which contained 100 µL of water and a 1:1 serial dilution with sterilized distilled water was carried out. In each well, 100 µL of appropriately adjusted fungal or bacterial cultures were added, and the bacteria were subjected to final concentrations of 250–3.9 μg/mL for pure compounds and 2.5–0.02 mg/mL for crude extracts. Amphotericin-B and Gentamicin (Virbac, Carros, France) served as positive controls for fungi and bacteria, respectively. For sterility, water served as control, while acetone served as a negative control. The microplates were then incubated for 24 h at 37 °C. Following incubation, 40 µL of 0.2 mg/mL p-iodonitrotetrazolium violet (INT, Sigma Aldrich) dissolved in water (hot) was added to the wells before being incubated at 37 °C for another 2 h. In the case of fungi, the INT was added before incubation. The MIC was measured visually as the lowest concentration of the compounds/extracts that inhibited proliferation.
# [3] = tested on: Escherichia coli ATCC 25922; experiment: Serial dilution microplate MIC; format: cell-based; details: for MIC: Escherichia coli; for Selectivity index E. coli: in brackets, Vero LC50 vs MIC
# Description: as §1
# [4] = tested on: Enterococcus faecalis ATCC 29212; experiment: Serial dilution microplate MIC; format: cell-based; details: for MIC: Enterococcus faecalis; for Selectivity index E. faecalis: in brackets, Vero LC50 vs MIC
# Description: as §1
# [5] = tested on: Pseudomonas aeruginosa ATCC 27853; experiment: Serial dilution microplate MIC; format: cell-based; details: for MIC: Pseudomonas aeruginosa; for Selectivity index P. aeruginosa: in brackets, Vero LC50 vs MIC
# Description: as §1
# [6] = tested on: Staphylococcus aureus ATCC 29213; experiment: Serial dilution microplate MIC; format: cell-based; details: for MIC: Staphylococcus aureus; for Selectivity index S. aureus: in brackets, Vero LC50 vs MIC
# Description: as §1
# [7] = tested on: Salmonella Typhimurium ATCC 39183; experiment: Serial dilution microplate MIC; format: cell-based; details: for MIC: Salmonella enterica, read-out: Minimum inhibitory concentration (MIC) S. Typhimurium; for Selectivity index S. Typhimurium: in brackets, Vero LC50 vs MIC
# Description: as §1
# [8] = tested on: Candida albicans ATCC 10231; experiment: Serial dilution microplate MIC (fungi); format: cell-based; details: for MIC: Candida albicans; for Selectivity index C. albicans: in brackets, Vero LC50 vs MIC
# Description: as §1
# P. aeruginosa = tested on: P. aeruginosa; set-up: method as in PMID 23480526; details: cited from earlier work
# L. monocytogenes = tested on: L. monocytogenes; set-up: method as in PMID 23480526; details: cited from earlier work
# [9] = set-up: method as in PMID 22693528; details: cited from earlier work
# COX-2 = tested on: COX-2; set-up: method as in doi:10.3329/bjp.v8i2.14167; details: cited from earlier work
# COX-1 = tested on: COX-1; set-up: method as in doi:10.3329/bjp.v8i2.14167; details: cited from earlier work
# HEK295 = tested on: HEK295; set-up: method as in PMID 27357542; details: cited from earlier work
# [10] = tested on: Botrytis cinerea and Sclerotinia sclerotiorum; set-up: method as in PMID 37570772; details: cited from earlier work
# Caco-2 tumor cells = tested on: Caco-2 tumor cells; set-up: method as in PMID 27357542; details: 5 μg/mL; cited from earlier work
# [11] = tested on: Leishmania braziliensis amastigotes; set-up: method as in PMID 32664596; details: cited from earlier work
# MCF-7 tumor cells = tested on: MCF-7 tumor cells; set-up: method as in PMID 27357542; details: 1 µg/mL; cited from earlier work
# Plasmodium falciparum = tested on: Plasmodium falciparum; set-up: method as in PMID 32664596; details: cited from earlier work
# [12] = ATCC25922, isolated compounds, Table 2, read-out: Minimum inhibitory concentration (MIC) E. coli
# [13] = ATCC29212, isolated compounds, Table 2, read-out: Minimum inhibitory concentration (MIC) E. faecalis
# [14] = ATCC27853, isolated compounds, Table 2, read-out: Minimum inhibitory concentration (MIC) P. aeruginosa
# [15] = ATCC29213, isolated compounds, Table 2, read-out: Minimum inhibitory concentration (MIC) S. aureus
# [16] = ATCC10231, isolated compounds, Table 2, read-out: Minimum inhibitory concentration (MIC) C. albicans
compound,measurement,setting,value
C=C1C(=O)O[C@H]2[C@H]1[C@@H](OC(C)=O)C[C@@](C)(O)[C@@]13O[C@@H]1[C@@H]1O[C@]1(C)[C@H]23 [Yomogiartemin],IC50,[1],~10 µM
"COc1cc(/C=C/C(=O)O)ccc1O [Ferulic acid, ferulic acid]",CC50 at 48 h,in vitro,> 200 µg/mL
same,MIC E. coli,E. coli,100 µg/mL
same,MIC S. aureus,S. aureus,1100 µg/mL
same,MIC,"[2]; all tested strains, read-out: MIC against all tested microorganisms",≥ 250 µg/mL
same,MIC against all tested microorganisms,[2],no efficacy
same,MIC,[3]; [12],> 250 µg/mL
same,Selectivity index E. coli,[3]; Table 2,< 0.8
same,MIC,[4]; [13],> 250 µg/mL
same,Selectivity index E. faecalis,[4]; Table 2,< 0.8
same,MIC,[5]; [14],> 250 µg/mL
same,Selectivity index P. aeruginosa,[5]; Table 2,< 0.8
same,MIC,[6]; [15],250 µg/mL
same,Selectivity index S. aureus,[6]; Table 2,> 0.8
same,MIC,"[7]; isolated compounds, Table 2",> 250 µg/mL
same,Selectivity index S. Typhimurium,[7]; Table 2,< 0.8
same,MIC,[8]; [16],250 µg/mL
same,Selectivity index C. albicans,[8]; Table 2,> 0.8
same,MIC P. aeruginosa,P. aeruginosa,100 µg/mL
same,MIC L. monocytogenes,L. monocytogenes,1250 µg/mL
"C=C1C(=O)O[C@H]2C1[C@@H](OC(C)=O)CC(=C)[C@]1(O)C=C[C@@](C)(O)[C@H]21 (stereo partly drawn) [1α, 4α-dihydroxybishopsolicepolide]",IC50,[1],~10 µM
"O=C1O[C@H]([C@@H](O)CO)C(O)=C1O [vitamin C, reference compound]",IC50 DPPH radical,[9],1.22 µg/mL
"C[C@@H]1[C@H](O)[C@@H](C)/C=C/C=C/C=C/C=C/C=C/C=C/C=C/[C@H](O[C@@H]2O[C@H](C)[C@@H](O)[C@H](N)[C@@H]2O)C[C@@H]2O[C@](O)(C[C@@H](O)C[C@@H](O)[C@H](O)CC[C@@H](O)C[C@@H](O)CC(=O)O[C@H]1C)C[C@H](O)[C@H]2C(=O)O [Amphotericin-B, reference compound]",MIC,"[8]; ATCC10231, crude extracts, Table 1, read-out: Minimum inhibitory concentration (MIC) C. albicans",20 µg/mL
same,MIC,[8]; [16],3.9 µg/mL
"CC(=O)O[C@H]1CC[C@]2(C)[C@H]3CC[C@]4(C)C(=CC[C@@]5(C)CCC(C)(C)C[C@H]54)[C@]3(C)CC[C@H]2C1(C)C [3β-Taraxerol acetate, 3β-taraxerol acetate]",IC50,COX-2,94.7 µM
same,IC50,COX-1,116 µM
"CCCCCCCCCCCCOC(=O)/C=C/c1ccc(O)cc1 [Dodecyl-p-coumarate, dodecyl-p-coumarate]",Toxic effect on HEK295,HEK295,minimal toxic effect
same,Mycelium growth of Botrytis cinerea and Sclerotinia sclerotiorum,[10],inhibition of mycelium growth
same,CC50 at 48 h,in vitro,> 200 µg/mL
same,Reduction of viability of Caco-2 tumor cells,Caco-2 tumor cells,≥ 15%
same,MIC,"[3]; ATCC25922, read-out: Minimum inhibitory concentration (MIC) E. coli",> 250 µg/mL
same,Selectivity index E. coli,[3]; Table 2,< 0.8
same,MIC,"[4]; ATCC29212, read-out: Minimum inhibitory concentration (MIC) E. faecalis",62.5 µg/mL
same,Selectivity index E. faecalis,[4]; Table 2,> 3.2
same,MIC,"[5]; ATCC27853, read-out: Minimum inhibitory concentration (MIC) P. aeruginosa",> 250 µg/mL
same,Selectivity index P. aeruginosa,[5]; Table 2,< 0.8
same,MIC,"[6]; ATCC29213, read-out: Minimum inhibitory concentration (MIC) S. aureus",> 250 µg/mL
same,Selectivity index S. aureus,[6]; Table 2,< 0.8
same,MIC,"[7]; isolated compounds, Table 2",> 250 µg/mL
same,Selectivity index S. Typhimurium,[7]; Table 2,< 0.8
same,MIC,"[8]; ATCC10231, read-out: Minimum inhibitory concentration (MIC) C. albicans",250 µg/mL
same,Selectivity index C. albicans,[8]; Table 2,> 0.8
same,EC50 Leishmania braziliensis amastigotes,[11],16.34 ± 0.49 µg/mL
same,Reduction of viability of MCF-7 tumor cells,MCF-7 tumor cells,at least 23%
same,EC50 Plasmodium falciparum,Plasmodium falciparum,81.19 ± 8.54 µg/mL
"CNC(C)C1CCC(N)C(OC2C(N)CC(N)C(OC3OCC(C)(O)C(NC)C3O)C2O)O1 (stereo not shown) [Gentamicin, reference compound]",MIC,"[3]; ATCC25922, crude extracts, Table 1, read-out: Minimum inhibitory concentration (MIC) E. coli",20 µg/mL
same,MIC,[3]; [12],3.9 µg/mL
same,MIC,"[4]; ATCC29212, crude extracts, Table 1, read-out: Minimum inhibitory concentration (MIC) E. faecalis",20 µg/mL
same,MIC,[4]; [13],3.9 µg/mL
same,MIC,"[5]; ATCC27853, crude extracts, Table 1, read-out: Minimum inhibitory concentration (MIC) P. aeruginosa",20 µg/mL
same,MIC,[5]; [14],3.9 µg/mL
same,MIC,"[6]; ATCC29213, crude extracts, Table 1, read-out: Minimum inhibitory concentration (MIC) S. aureus",20 µg/mL
same,MIC,[6]; [15],3.9 µg/mL
same,MIC,"[7]; crude extracts, Table 1",20 µg/mL
same,MIC,"[7]; isolated compounds, Table 2",3.9 µg/mL
